Assay [1] relates to HCT116 WT cells. The experiment in a line: HCT116 proliferation assay, WT cells (CellTiter-Glo, 6 days). Type of assay: cell-based. The following applies: Homo sapiens, HCT-116, 144 h, read-out: Prolif_HCT116-WT IC50. Put shortly:
(§1)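 Compound titrations (top dose 1 or 10 µM, 1:3 dilution, 8 or 9 concentrations) and a DMSO control were applied to cells cultured overnight beforehand in RPMI 1640 with 10% FBS at 37° C, 5% CO2; viability was scored from luminescence.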
A general note: ATP-based viability assays read luminescence as a measure of living cells.

Assay [2] deals with HCT116 MTAP null cells. The experiment in a line: HCT116 proliferation assay, MTAP null cells (CellTiter-Glo, 6 days). Type of assay: cell-based. To be noted: HCT116-MTAP null, 144 h, read-out: Protif_ HCT116-MTAP null IC50. Put shortly: as §1

The structures appear in SMILES notation.

For orientation: IC50 means the concentration needed to halve the response being measured. Take `Cc1cc2cc(C(=O)N(Cc3ccc(C(F)(F)F)cn3)C(C)c3ccnc(F)c3)ccc2nc1N` (stereo not shown) [Example 797, 2-amino-N-(1-(2-fluoropyridin-4-yl)ethyl)-3-methyl-N-((5-(trifluoromethyl)pyridin-2-yl)methyl)quinoline-6-carboxamide]: the half-inhibitory concentration (IC50) came out at 3820 nM in assay [1] and 229 nM in assay [2].
The corresponding values for `Cc1cc2cc(C(=O)N(Cc3ccc(C(F)(F)F)cn3)[C@H](C)c3cccc(F)n3)ccc2nc1N` [Example 799, (R)-2-amino-N-(1-(6-fluoropyridin-2-yl)ethyl)-3-methyl-N-((5-(trifluoromethyl)pyridin-2-yl)methyl)quinoline-6-carboxamide] are 301 nM and 13 nM.
Taken in the same sequence, the figures for `C[C@H](c1cccc(F)n1)N(Cc1ccc(C(F)(F)F)cn1)C(=O)c1cnc2nc(N)c(Br)cc2c1` [Example 800, (R)-7-amino-6-bromo-N-(1-(6-fluoropyridin-2-yl)ethyl)-N-((5-(trifluoromethyl)pyridin-2-yl)methyl)-1,8-naphthyridine-3-carboxamide] were 2790 nM and 173 nM.
As to `Cc1cc2cc(C(=O)N(Cc3ccc(C(C)(C)O)cn3)[C@H](C)c3ncccn3)ccc2nc1N` [Example 801, 2-amino-N-((5-(2-hydroxy-2-propanyl)-2-pyridinyl)methyl)-3-methyl-N-((1R)-1-(2-pyrimidinyl)ethyl)-6-quinolinecarboxamide], the IC50 in assay [1] is > 10000 nM; in assay [2] it was 533 nM.
Taken in the same sequence, the figures for `Cc1cc2cc(C(=O)N(Cc3ccc(C(F)(F)F)cn3)Cc3ncccc3F)c(Cl)cc2nc1N` [Example 804, 2-amino-7-chloro-N-((3-fluoro-2-pyridinyl)methyl)-3-methyl-N-((5-(trifluoromethyl)-2-pyridinyl)methyl)-6-quinolinecarboxamide] were 5770 nM and 226 nM.
The corresponding values for `Cc1cc2cc(C(=O)N(Cc3ccc(C(F)(F)F)cn3)C(c3ncccn3)C(C)C)ccc2nc1N` (stereo not shown) [Example 805, 2-amino-3-methyl-N-(2-methyl-1-(pyrimidin-2-yl)propyl)-N-((5-(trifluoromethyl)pyridin-2-yl)methyl)quinoline-6-carboxamide] are 2000 nM and 144 nM.
Taken in the same sequence, the figures for `Cc1cc2cc(C(=O)N(Cc3ccc(C(F)(F)F)cn3)C(C)c3cccc(C#N)n3)ccc2nc1N` (stereo not shown) [Example 806, 2-amino-N-(1-(6-cyanopyridin-2-yl)ethyl)-3-methyl-N-((5-(trifluoromethyl)pyridin-2-yl)methyl) quinoline-6-carboxamide] were 6800 nM and 552 nM.
`Cc1cc2cc(C(=O)N(Cc3cc(Cl)c(C#N)cn3)[C@H](C)c3ncccn3)ccc2nc1N` [Example 807, (R)-2-amino-N-((4-chloro-5-cyanopyridin-2-yl)methyl)-3-methyl-N-(1-(pyrimidin-2-yl)ethyl)quinoline-6-carboxamide]: the IC50 in assay [1] is 764 nM; in assay [2], 75 nM.
For the molecule `C[C@H](c1ncccn1)N(Cc1ccc(C(F)(F)F)nn1)C(=O)c1cnc2nc(N)c(I)cc2c1` [Example 808, (R)-7-amino-6-iodo-N-(1-(pyrimidin-2-yl)ethyl)-N-((6-(trifluoromethyl)pyridazin-3-yl)methyl)-1,8-naphthyridine-3-carboxamide], the IC50 in assay [1] worked out at 19900 nM; in assay [2], 454 nM.
Taken in the same sequence, the figures for `Cc1cc2cc(C(=O)N(Cc3ccc(C(F)(F)F)cn3)[C@@H]3CCC[C@H]3OC(F)F)ccc2nc1N` [Example 816, 2-amino-N-((1R,2R)-2-(difluoromethoxy)cyclopentyl)-3-methyl-N-((5-(trifluoromethyl)pyridin-2-yl)methyl)quinoline-6-carboxamide] were 368 nM and 18 nM.
Taken in the same sequence, the figures for `Cc1cc2cc(C(=O)N(Cc3ccc(C4CC4)cn3)[C@H](C)c3ncccn3)ccc2nc1N` [Example 821, (R)-2-amino-N-((5-cyclopropylpyridin-2-yl)methyl)-3-methyl-N-(1-(pyrimidin-2-yl)ethyl)quinoline-6-carboxamide] were 372 nM and 19 nM.
Taken in the same sequence, the figures for `COC(=O)N1CCC(c2ccc(CN(C(=O)c3ccc4nc(N)c(C)cc4c3)[C@H](C)c3ncccn3)nc2)CC1` [Example 822, methyl (R)-4-(6-((2-amino-3-methyl-N-(1-(pyrimidin-2-yl)ethyl)quinoline-6-carboxamido)methyl)pyridin-3-yl)piperidine-1-carboxylate] were 763 nM and 45 nM.
For the molecule `Cc1cc2cc(C(=O)N(Cc3ccc(N4CCOCC4)nn3)[C@H](C)c3ncccc3F)ccc2nc1N` [Example 823, 2-Amino-N-((1R)-1-(3-fluoro-2-pyridinyl)ethyl)-3-methyl-N-((6-(4-morpholinyl)-3-pyridazinyl)methyl)-6-quinolinecarboxamide], the IC50 in assay [1] worked out at 695 nM; in assay [2], 41 nM.
Taken in the same sequence, the figures for `CNc1ccc(CN(C(=O)c2ccc3nc(N)c(C)cc3c2)[C@H](C)c2ncccc2F)nn1` [Example 824, 2-Amino-N-((1R)-1-(3-fluoro-2-pyridinyl)ethyl)-3-methyl-N-((6-(methylamino)-3-pyridazinyl)methyl)-6-quinolinecarboxamide] were > 10000 nM and 607 nM.
Taken in the same sequence, the figures for `N#Cc1ccc(CN(C(=O)c2ccc3nc(N)c(Br)cc3c2)C2CCCC2C#N)nc1` (stereo not shown) [Example 827, 2-amino-3-bromo-N-(2-cyanocyclopentyl)-N-((5-cyanopyridin-2-yl)methyl)quinoline-6-carboxamide] were > 1000 nM and 880 nM.
The corresponding values for `N#CC1(CN(Cc2ccc(C(F)(F)F)cn2)C(=O)c2ccc3nc(N)c(Br)cc3c2)CC1` [Example 828, 2-amino-3-bromo-N-((1-cyanocyclopropyl)methyl)-N-((5-(trifluoromethyl)pyridin-2-yl)methyl)quinoline-6-carboxamide] are > 10000 nM and 910 nM.
As to `CO[C@@H]1COCC[C@H]1N(Cc1ccc(C(F)(F)F)cn1)C(=O)c1ccc2nc(N)c(Br)cc2c1` [Example 829, 2-amino-3-bromo-N-((3S,4R)-3-methoxytetrahydro-2H-pyran-4-yl)-N-((5-(trifluoromethyl)pyridin-2-yl)methyl) quinoline-6-carboxamide], the IC50 is > 10000 nM in assay [1] and 840 nM in assay [2].
The corresponding values for `CC1COCCC1N(Cc1ccc(C(F)(F)F)cn1)C(=O)c1ccc2nc(N)c(Br)cc2c1` (stereo not shown) [Example 830, 2-amino-3-bromo-N-(3-methyltetrahydro-2H-pyran-4-yl)-N-((5-(trifluoromethyl)pyridin-2-yl)methyl)quinoline-6-carboxamide] are > 10000 nM and 380 nM.
Taken in the same sequence, the figures for `CC1CCCC1N(Cc1ccc(C(F)(F)F)cn1)C(=O)c1ccc2nc(N)c(Br)cc2c1` (stereo not shown) [Example 831, 2-amino-3-bromo-N-(2-methylcyclopentyl)-N-((5-(trifluoromethyl)pyridin-2-yl)methyl)quinoline-6-carboxamide] were > 10000 nM and 440 nM.
Take `Nc1nc2ccc(C(=O)N(Cc3ccc(C(F)(F)F)cn3)C3CCOC3C3CC3)cc2cc1Br` (stereo not shown) [Example 832, 2-amino-3-bromo-N-(2-cyclopropyltetrahydrofuran-3-yl)-N-((5-(trifluoromethyl)pyridin-2-yl)methyl)quinoline-6-carboxamide]: the IC50 in assay [1] was > 10000 nM; in assay [2] it was 380 nM.
The corresponding values for `CC(C)CN(Cc1ccc(C(F)(F)F)cn1)C(=O)c1ccc2nc(N)c(-c3ccccc3)cc2c1` [Example 834, 2-Amino-N-(2-methylpropyl)-3-phenyl-N-((5-(trifluoromethyl)-2-pyridinyl)methyl)-6-quinolinecarboxamide] are 3190 nM and 523 nM.
Taken in the same sequence, the figures for `Cc1cc2cc(C(=O)N(Cc3ccc(C(F)(F)F)cn3)CC(C)C)c(O)cc2nc1N` [Example 835, 2-Amino-7-hydroxy-3-methyl-N-(2-methylpropyl)-N-((5-(trifluoromethyl)-2-pyridinyl)methyl)-6-quinolinecarboxamide] were 8010 nM and 448 nM.
Turning to `N#CC[C@@H](C1CC1)N(Cc1ccc(C#N)cn1)C(=O)c1ccc2nc(N)c(I)cc2c1` [Example 837, (S)-2-amino-N-(2-cyano-1-cyclopropylethyl)-N-((5-cyanopyridin-2-yl)methyl)-3-iodoquinoline-6-carboxamide], the IC50 was 2170 nM in assay [1] and 42 nM in assay [2].
The corresponding values for `C[C@H](c1ncccn1)N(Cc1ccc(C(F)(F)F)cn1)C(=O)c1cnc2nc(N)c(I)cc2c1` [Example 838, (R)-7-amino-6-iodo-N-(1-(pyrimidin-2-yl)ethyl)-N-((5-(trifluoromethyl)pyridin-2-yl)methyl)-1,8-naphthyridine-3-carboxamide] are 1650 nM and 56 nM.
The corresponding values for `C[C@H](c1ncn(C)n1)N(Cc1ccc(C(F)F)cn1)C(=O)c1ccc2nc(N)c(I)cc2c1` [Example 839, (R)-2-amino-N-((5-(difluoromethyl)pyridin-2-yl)methyl)-3-iodo-N-(1-(1-methyl-1H-1,2,4-triazol-3-yl)ethyl)quinoline-6-carboxamide] are 1990 nM and 57 nM.
For `Cc1nc(CN(C(=O)c2cnc3nc(N)c(I)cc3c2)[C@H](C)c2ncccn2)ccc1C#N` [Example 840, (R)-7-amino-N-((5-cyano-6-methylpyridin-2-yl)methyl)-6-iodo-N-(1-(pyrimidin-2-yl)ethy1)-1,8-naphthyridine-3-carboxamide], the values for the IC50 in assay [1] and in assay [2] were 5500 nM and 90 nM, respectively.

For the origin of these results see patent publication US20230159510A1, “NOVEL PRMT5 INHIBITORS” (AMGEN INC., priority 2020, published 2023).
